Where no end group is shown, it is not given here.
How the values were obtained:
[1] = in vivo; details: SCID, mouse, iv, 5 uCi, total radioactivity
[2] = biological target: T1, H2009 cells (Homo sapiens, UniProt P06756+P18564); test: Cellular uptake of labeled peptide by confocal/fluorescence microscopy; type: cell-based; details: for cellular uptake of peptide-Qdot conjugate (fluorescent/confocal microscopy): 20 nmol/L SAQdot605 conjugate, 10 min incubation
[3] = tested on: αvβ6; details: cited from earlier work
[4] = biological target: T1, H2009 cells; test: Peptide blocking of cognate H2009.1 phage uptake on H2009 cells; type: cell-based; details: Fig. 2B, 2D, Supplementary Data

T1 sequence (P06756 31-1048): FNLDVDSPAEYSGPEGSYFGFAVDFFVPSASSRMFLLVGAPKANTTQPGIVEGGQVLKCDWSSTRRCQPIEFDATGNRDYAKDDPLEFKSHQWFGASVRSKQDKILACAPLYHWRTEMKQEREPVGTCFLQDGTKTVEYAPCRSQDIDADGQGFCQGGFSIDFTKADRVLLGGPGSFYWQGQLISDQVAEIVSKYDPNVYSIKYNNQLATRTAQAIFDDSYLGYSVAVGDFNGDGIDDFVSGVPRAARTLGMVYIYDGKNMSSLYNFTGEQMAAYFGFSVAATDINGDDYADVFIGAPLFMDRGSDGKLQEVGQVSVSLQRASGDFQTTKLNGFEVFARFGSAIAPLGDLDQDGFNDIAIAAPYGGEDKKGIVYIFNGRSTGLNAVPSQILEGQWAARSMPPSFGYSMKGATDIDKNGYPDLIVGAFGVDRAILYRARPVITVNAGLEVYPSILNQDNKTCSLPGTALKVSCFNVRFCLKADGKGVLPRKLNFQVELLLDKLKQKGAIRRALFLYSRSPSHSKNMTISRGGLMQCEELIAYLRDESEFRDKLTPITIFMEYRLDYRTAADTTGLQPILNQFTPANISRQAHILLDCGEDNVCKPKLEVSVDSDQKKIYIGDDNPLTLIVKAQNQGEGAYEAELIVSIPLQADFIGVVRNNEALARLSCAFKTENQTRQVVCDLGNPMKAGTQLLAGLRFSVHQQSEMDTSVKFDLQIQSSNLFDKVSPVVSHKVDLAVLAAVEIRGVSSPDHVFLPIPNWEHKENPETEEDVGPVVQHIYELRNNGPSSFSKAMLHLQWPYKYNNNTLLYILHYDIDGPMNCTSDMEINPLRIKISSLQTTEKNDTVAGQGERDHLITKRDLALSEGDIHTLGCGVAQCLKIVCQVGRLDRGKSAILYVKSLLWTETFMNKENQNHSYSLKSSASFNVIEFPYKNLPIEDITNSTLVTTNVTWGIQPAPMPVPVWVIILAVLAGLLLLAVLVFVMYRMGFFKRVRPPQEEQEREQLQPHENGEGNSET
T1 sequence (P18564 22-788): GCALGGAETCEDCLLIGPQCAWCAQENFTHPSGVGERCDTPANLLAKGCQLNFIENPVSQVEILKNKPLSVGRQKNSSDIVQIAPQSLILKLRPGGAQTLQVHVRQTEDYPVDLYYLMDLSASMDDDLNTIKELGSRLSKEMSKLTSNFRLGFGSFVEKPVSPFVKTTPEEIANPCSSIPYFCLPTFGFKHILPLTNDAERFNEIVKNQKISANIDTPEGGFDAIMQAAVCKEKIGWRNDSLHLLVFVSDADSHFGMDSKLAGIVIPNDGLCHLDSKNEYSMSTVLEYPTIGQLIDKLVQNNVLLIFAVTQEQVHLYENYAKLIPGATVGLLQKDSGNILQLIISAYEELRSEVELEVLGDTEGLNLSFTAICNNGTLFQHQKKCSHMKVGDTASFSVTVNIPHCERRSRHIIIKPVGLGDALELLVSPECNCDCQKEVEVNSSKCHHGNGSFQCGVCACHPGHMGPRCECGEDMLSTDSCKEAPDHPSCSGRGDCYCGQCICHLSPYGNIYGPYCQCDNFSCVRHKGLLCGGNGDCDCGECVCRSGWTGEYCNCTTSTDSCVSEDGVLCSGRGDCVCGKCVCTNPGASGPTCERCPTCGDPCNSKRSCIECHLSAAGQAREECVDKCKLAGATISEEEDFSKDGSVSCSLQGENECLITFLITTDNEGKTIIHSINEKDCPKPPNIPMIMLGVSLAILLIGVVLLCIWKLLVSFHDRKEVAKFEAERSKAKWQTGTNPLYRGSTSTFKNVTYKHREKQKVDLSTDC

Row | Compound | cellular uptake of peptide-Qdot conjugate (fluorescent/confocal microscopy) [2] | ability to block phage uptake / binding affinity for H2009 cells (in words) [4] | further results
1 | CC(C)C[C@H](NC(=O)[C@H](CCC(N)=O)NC(=O)[C@H](CCCNC(=N)N)NC(=O)[C@H](CC(C)C)NC(=O)[C@@H](NC(=O)[C@H](C)NC(=O)[C@H](CC(C)C)NC(=O)[C@H](CC(=O)O)NC(=O)CNC(=O)[C@@H](N)CCCNC(=N)N)[C@@H](C)O)C(=O)NCCOCCOCCOCCOCCOCCOCCOCCOCCOCCOCCOCCOCCC(=O)N[C@@H](CSC1CC(=O)N(CCC(=O)NCCCC[C@H](NC(=O)CCN2C(=O)CC(SC[C@H](NC(=O)CCOCCOCCOCCOCCOCCOCCOCCOCCOCCOCCOCCOCCNC(=O)[C@H](CC(C)C)NC(=O)[C@H](CCC(N)=O)NC(=O)[C@H](CCCNC(=N)N)NC(=O)[C@H](CC(C)C)NC(=O)[C@@H](NC(=O)[C@H](C)NC(=O)[C@H](CC(C)C)NC(=O)[C@H](CC(=O)O)NC(=O)CNC(=O)[C@@H](N)CCCNC(=N)N)[C@@H](C)O)C(N)=O)C2=O)C(=O)NCCCC[C@H](NC(=O)[C@H](CCCCNC(=O)CCN2C(=O)CC(SC[C@H](NC(=O)CCOCCOCCOCCOCCOCCOCCOCCOCCOCCOCCOCCOCCNC(=O)[C@H](CC(C)C)NC(=O)[C@H](CCC(N)=O)NC(=O)[C@H](CCCNC(=N)N)NC(=O)[C@H](CC(C)C)NC(=O)[C@@H](NC(=O)[C@H](C)NC(=O)[C@H](CC(C)C)NC(=O)[C@H](CC(=O)O)NC(=O)CNC(=O)[C@@H](N)CCCNC(=N)N)[C@@H](C)O)C(N)=O)C2=O)NC(=O)CCN2C(=O)CC(SC[C@H](NC(=O)CCOCCOCCOCCOCCOCCOCCOCCOCCOCCOCCOCCOCCNC(=O)[C@H](CC(C)C)NC(=O)[C@H](CCC(N)=O)NC(=O)[C@H](CCCNC(=N)N)NC(=O)[C@H](CC(C)C)NC(=O)[C@@H](NC(=O)[C@H](C)NC(=O)[C@H](CC(C)C)NC(=O)[C@H](CC(=O)O)NC(=O)CNC(=O)[C@@H](N)CCCNC(=N)N)[C@@H](C)O)C(N)=O)C2=O)C(=O)N[C@@H](CSC2CC(=O)N(CCNC(=O)CN3CCN(CC(=O)O)CCN(CC(=O)O)CCN(CC(=O)O)CC3)C2=O)C(=O)NCCC(=O)O)C1=O)C(N)=O (stereo partly shown) [111In-labeled H2009.1 peptide, metal not drawn] |  |  | tissue uptake at 4 h [1]: 0.84 ± 0.11 %ID/g
2 | DALRLQGTLR [scrambled H2009.1 peptide] | No uptake |  | 
3 | GFTTGRRGDLATIHGMNPF [A20LAP] |  |  | affinity for αvβ6 [3]: low nanomolar range
4 | RGDLATL [H2009.1 7-mer peptide] |  | retains full activity | 
5 | RGDLATLRQL-OH |  | significantly reduced affinity | 
6 | YAAWPASGAWTGTAPC-SAGT [H1299.2-Qdot conjugate] | no uptake |  | localization of β6 integrin after treatment with peptide-Qdot conjugate ([2]; 10-min incubation, fixed, permeabilized, stained for β6): β6 remains localized on the cell surface
